Assays:
LMP7 [1] = target: T1, LMP7 (Homo sapiens, UniProt P28062); experiment: Enzymatic inhibitory activity on LMP7 (MOLT-4 cell lysate, Ac-ANW-AMC substrate); assay type: biochemical; settings: 1 hour pre-incubation
T1 construct: using MOLT-4 cell lysate as the enzyme source of LMP7; endogenous in cells; host or cells: MOLT-4 (human acute lymphoblastic leukemia cells)
Source text: LMP7 is a catalytic subunit of immunoproteasomes. In this experiment, an enzymatic detection platform was established using its hydrolytic enzyme activity and used for compound activity detection. Using Ac-ANW-AMC (Bonston Biochem, Cat #S-320) as a substrate for LMP7, the amount of fluorescent group AMC (7-amino-4-methylcoumarin) released after hydrolysis can reflect the enzymatic activity. MOLT-4 cells are human acute lymphoblastic leukemia cells and have been identified as cells with high expression of LMP7. We established an enzymatic detection method for compound inhibition on LMP7 using MOLT-4 cell lysate as the enzyme source of LMP7 and detected the compound inhibitory activity (half inhibitory concentration, IC50).
(§1) MOLT-4 cells were cultured in a 75 cm^2 cell culture flask (Corning) (37° C., 95% air, and 5% CO2) with RPMI-1640 (Biological Industries) medium containing 10% fetal bovine serum (Biological Industries) and 1% Pen Strep (Gibco) and passaged 2-3 times one week. 1×10^7 MOLT-4 cells were collected, resuspended in 1 ml of PBS (Solarbio), and centrifuged at 3000 rpm for 5 minutes. The supernatant was aspirated off. The cells were resuspended in 500 μl of lysis buffer (20 mM Tris, pH 8.0, 5 mM EDTA, plus Protease inhibitor (1:1000) and Phosphatase Inhibitor (1:100) when used) and left on ice for 30 minutes. The cells were broken by supersonic technique, 0.5 S on, 0.5 S off, for 2.5 S. The centrifuge was performed at 12000 rpm, 4° C. for 10 minutes. The supernatant was the cell lysate and protein quantification was performed by using the BCA method (Thermo, #23225).
Compounds were diluted in a 5-fold gradient with 100% DMSO for a total of 9 concentrations: 2 W for each concentration was added to a 48-μl reaction buffer (20 mM Tris, pH 8.0, 0.5 mM EDTA) and mixed well as 4* compound (final concentrations: 2000, 400, 80, 16, 3.2, 0.64, 0.128, 0.0256, and 0 nM) for later use. A reaction buffer was used to prepare 4* MOLT-4 cell lysate at a final concentration of 20 ng/μl and 2*Ac-ANW-AMC at a final concentration of 100 µM. 5 μl of 4* compound was added to a 384-well plate (OptiPlate-384, purchased from PerkinElmer), added with 5 W of 4* cell lysate, centrifuged, and reacted in an incubator at 23° C. for 1 hour. 10 W of 2* Ac-ANW-AMC was added and the reaction was started by centrifugation at 23° C. in the dark for 2 hours. After completion of the reaction, the signal value (excitation wavelength 345 nm/emission wavelength 445 nm) was read on the CLARIO star^Plus (purchased from BMG LRBTECH). Enzyme activity was determined at 9 concentrations for each compound, and data were processed using the GraphPad Prism software to calculate the half inhibitory concentration of the compound on LMP7, i.e. the IC50 value.

β5 = target: T2, β5 (Homo sapiens, UniProt P28074); experiment: Enzymatic inhibitory activity on β5 (HEK-293 cell lysate, Ac-WLA-AMC substrate); assay type: biochemical; settings: 1 hour pre-incubation
T2 construct: using HEK-293 cell lysate as the enzyme source of D5; endogenous in cells; host or cells: HEK-293 (human embryonic kidney cells)
Source text: β5 is a catalytic subunit of immunoproteasomes. In this experiment, an enzymatic detection platform was established using its hydrolytic enzyme activity and used for compound activity detection. Using Ac-WLA-AMC (Bonston Biochem, Cat #5-330) as a substrate for D5, the amount of fluorescent group AMC (7-amino-4-methylcoumarin) released after hydrolysis can reflect the enzymatic activity. […] We established an enzymatic detection method for compound inhibition on D5 using HEK-293 cell lysate as the enzyme source of D5 and detected the compound inhibitory activity (half inhibitory concentration, IC50). The enzymatic inhibitory activity of compounds against D5 was used as a measure index of compound selectivity.
as §1, with “HEK-293” for “MOLT-4”, “DMEM” for “RPMI-1640”, “performed” for “performed by”
Compounds were diluted in a 5-fold gradient with 100% DMSO for a total of 9 concentrations. 2 W for each concentration was added to a 48-μl reaction buffer (20 mM Tris, pH 8.0, 0.5 mM EDTA) and mixed well as 4* compound (final concentrations: 100000, 20000, 4000, 800, 160, 32, 6.4, 1.28, and 0 nM) for later use. A reaction buffer was used to prepare 4*HEK-293 cell lysate at a final concentration of 25 ng/μl and 2*Ac-WLA-AMC at a final concentration of 20 μM. 5 W of 4* compound was added to a 384-well plate (OptiPlate-384, purchased from PerkinElmer), added with 5 W of 4*HEK-293 cell lysate, centrifuged, and reacted in an incubator at 23° C. for 1 hour. 10 W of 2* Ac-WLA-AMC was added and the reaction was started by centrifugation at 23° C. in the dark for 2 hours. After completion of the reaction, the signal value (excitation wavelength 345 nm/emission wavelength 445 nm) was read on the CLARIO star^Plus (purchased from BMG LRBTECH). Enzyme activity was determined at 9 concentrations for each compound, and data were processed using the GraphPad Prism software to calculate the half inhibitory concentration of the compound on D5, i.e. the IC50 value.

LMP7 [2] = target: T1, LMP7; experiment: Cytological inhibitory activity on LMP7 in MOLT-4 cells; assay type: cell-based; settings: incubation for 2 hours with compound, read-out: Cytological activity data LMP7 Activity (MOLT-4Cell)
Protocol: MOLT-4 are human acute lymphoblastic leukemia cells and have been identified as cells with high expression of LMP7. In this experiment, the compounds were pre-incubated with MOLT-4, and Ac-ANW-AMC (BonstonBiochem, Cat #S-320) was used as the substrate of LMP7 to establish the detection method for the enzymatic activity of LMP7 in cells and detect the compound inhibitory activity (half inhibitory concentration, IC50).
Cells were plated in a 24-well plate (Corning) at a concentration of 1.5×10^5/ml per well. The next day compounds were prepared and diluted in a 5-fold gradient from 2 mM in 100% DMSO for a total of 8 concentrations. 2 μl for each concentration of the compound was added to a 1-ml cell culture medium, supplemented with 1 ml of RPMI-1640 only (final FBS concentration 5%, v/v). The compounds were mixed with the cells. After incubation for 2 hours in the incubator, the cells were centrifuged at 2000 rpm for 8 minutes to discard the supernatant. The cells were washed once with 2 ml PBS (Solarbio), and centrifuged again to discard the supernatant. The cells were resuspended in 100 μl of lysis buffer (20 mM Tris, pH 8.0, 5 mM EDTA, plus Protease inhibitor (1: 100) and Phosphatase Inhibitor (1:100) when used) and left in a 4° C. refrigerator for 45 minutes.
After 2 min. of centrifuge at 2000 rpm, the lysate was transferred from the 24-well plate to a 96-well plate, and centrifuged at 2000 rpm, 4° C., for 15 min. The supernatant was the lysate. Protein quantification was performed using the BCA method (Thermo, #23225). A 2* lysate was prepared with the reaction buffer (20 mM Tris, pH 8.0, 0.5 mM EDTA) at a final concentration of 20 ng/μl. 2* Ac-ANW-AMC was prepared with the reaction buffer at a final concentration of 100 μM. 10 µl of 2* lysate was added to a 384-well plate (OptiPlate-384, purchased from PerkinElmer), and added with 10 W of 2* Ac-ANW-AMC. The reaction was started by centrifugation at 23° C. in the dark for 1 hour. After completion of the reaction, the signal value (excitation wavelength 345 nm/emission wavelength 445 nm) was read on the CLARIO starPlus (purchased from BMG LRBTECH). Enzyme activity was determined at 8 concentrations for each compound, and data were processed using the GraphPad Prism software to calculate the half inhibitory concentration of the compound on LMP7 hydrolase in MOLT-4 cells, i.e. the IC50 value.

IC50 (LMP7 [1])	IC50 (β5)	IC50 (LMP7 [2])	SMILES
1.99 nM	38.4 nM	13.6 nM	CC1(C)[C@@H]2C[C@H]3OB([C@H](Cc4coc5ccccc45)NC(=O)C(=O)Nc4ncc(Cl)s4)O[C@@]3(C)[C@H]1C2 [Ex. 35, (R)-(2-(benzofuran-3-yl)-1-(2-oxo-2-((5-chlorothiazol-2-yl)amino)acetamido)ethyl)boronic acid (1S,2S,3R,5S)-(+)-pinane-2,3-diol ester]
3.14 nM	54.5 nM	19.5 nM	O=C(Nc1ncc(Cl)s1)C(=O)N[C@@H](Cc1coc2ccccc12)B(O)O [Ex. 36, (R)-(2-(benzofuran-3-yl)-1-(2-oxo-2-((5-chlorothiazol-2-yl)amino)acetamido)ethyl)boronic acid]
5.93 nM	264 nM	111 nM	Cn1ccnc1NC(=O)C(=O)N[C@@H](Cc1coc2ccccc12)B(O)O [Ex. 37, (R)-(2-(benzofuran-3-yl)-1-(2-oxo-2-((1-methyl-1H-imidazol-2-yl)amino)acetamido)ethyl)boronic acid]
5.95 nM	392 nM	3.51 nM	O=C(N[C@@H](Cc1coc2ccccc12)B(O)O)C(=O)N1C2CCC1COC2 [Ex. 39, (R)-(2-(benzofuran-3-yl)-1-(2-oxo-2-(3-oxa-8-azabicyclo[3.2.1]octan-8-yl)acetamido)ethyl)boronic acid]
4.91 nM	54.2 nM	15.9 nM	O=C(N[C@@H]1CCOC1)C(=O)N[C@@H](Cc1coc2ccccc12)B(O)O [Ex. 44, ((R)-2-(benzofuran-3-yl)-1-(2-oxo-2(((R)-tetrahydrofuran-3-yl)amino)acetamido)ethyl) boronic acid]
5.32 nM	97.7 nM	22.7 nM	COc1ncccc1NC(=O)C(=O)N[C@@H](Cc1coc2ccccc12)B(O)O [Ex. 45, (R)-(2-(benzofuran-3-yl)-1-(2-oxo-2-((2-methoxypyridin-3-yl)amino)acetamido)ethyl)boronic acid]
7.83 nM	93.8 nM	2.29 nM	Cc1cnc(NC(=O)C(=O)N[C@@H](Cc2coc3ccccc23)B(O)O)cn1 [Ex. 46, (R)-(2-(benzofuran-3-yl)-1-(2-oxo-2-((5-methylpyrazin-2-yl)amino)acetamido)ethyl)boronic acid]
3.1 nM	43.5 nM	2.32 nM	O=C(Nc1cnc2ccccc2n1)C(=O)N[C@@H](Cc1coc2ccccc12)B(O)O [Ex. 47, (R)-(2-(benzofuran-3-yl)-1-(2-oxo-2-(quinoxalin-2-ylamino)acetamido)ethyl) boronic acid]
4.58 nM	22.5 nM	11.1 nM	O=C(Nc1cncnc1)C(=O)N[C@@H](Cc1coc2ccccc12)B(O)O [Ex. 48, (R)-(2-(benzofuran-3-yl)-1-(2-oxo-2-(pyrimidin-5-ylamino)acetamido)ethyl) boronic acid]
5.96 nM	357 nM	7.91 nM	CN(C)c1ccnc(NC(=O)C(=O)N[C@@H](Cc2coc3ccccc23)B(O)O)c1 [Ex. 50, (R)-(2-(benzofuran-3-yl)-1-(2-oxo-2-((4-dimethylaminopyridin-2-yl)amino)acetamido)ethyl)boronic acid]
3.08 nM	74.6 nM	3.88 nM	CC1(C)[C@@H]2C[C@H]3OB([C@H](Cc4coc5ccccc45)NC(=O)C(=O)N[C@@H]4C[C@H]5CC[C@@H]4O5)O[C@@]3(C)[C@H]1C2 [Ex. 51, ((R)-1-(2-(((1S,2R,4R)-7-oxabicyclo[2.2.1]heptan-2-yl)amino)-2-oxoacetamido)-2-(benzofuran-3-yl)ethyl)boronic acid (1S,2S,3R,5S)-(+)-pinane-2,3-diol ester]
1.61 nM	32.4 nM	4.94 nM	CC1(C)[C@@H]2C[C@H]3OB([C@H](Cc4coc5ccccc45)NC(=O)C(=O)Nc4ccccc4F)O[C@@]3(C)[C@H]1C2 [Ex. 52, (R)-(2-(benzofuran-3-yl)-1-(2-oxo-2-(2-fluorophenylamino)acetamido)ethyl) boronic acid (1S,2S,3R,5S)-(+)-pinane-2,3-diol ester]

Source: patent US20240425529A1, “BORIC ACID DERIVATIVE” (SHOUYAO HOLDINGS (BEIJING) CO., LTD., priority 2021, published 2024)
